Test [1] concerns the target T1, Corticotropin-releasing factor receptor 2/Corticotropin-releasing factor-binding protein (Homo sapiens, UniProt P24387+Q13324).
T1 sequence (Q13324 whole entry): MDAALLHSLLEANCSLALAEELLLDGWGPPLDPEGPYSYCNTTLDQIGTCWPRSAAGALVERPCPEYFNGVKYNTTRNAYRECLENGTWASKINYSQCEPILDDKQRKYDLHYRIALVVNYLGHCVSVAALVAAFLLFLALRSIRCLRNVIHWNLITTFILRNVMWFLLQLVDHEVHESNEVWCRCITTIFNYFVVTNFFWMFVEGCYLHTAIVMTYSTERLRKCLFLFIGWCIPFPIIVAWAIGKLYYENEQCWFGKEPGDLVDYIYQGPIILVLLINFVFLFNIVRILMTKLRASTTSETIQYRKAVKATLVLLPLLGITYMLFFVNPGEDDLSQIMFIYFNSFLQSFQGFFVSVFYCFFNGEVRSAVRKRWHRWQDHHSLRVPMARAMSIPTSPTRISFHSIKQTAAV
T1 sequence (P24387 whole entry): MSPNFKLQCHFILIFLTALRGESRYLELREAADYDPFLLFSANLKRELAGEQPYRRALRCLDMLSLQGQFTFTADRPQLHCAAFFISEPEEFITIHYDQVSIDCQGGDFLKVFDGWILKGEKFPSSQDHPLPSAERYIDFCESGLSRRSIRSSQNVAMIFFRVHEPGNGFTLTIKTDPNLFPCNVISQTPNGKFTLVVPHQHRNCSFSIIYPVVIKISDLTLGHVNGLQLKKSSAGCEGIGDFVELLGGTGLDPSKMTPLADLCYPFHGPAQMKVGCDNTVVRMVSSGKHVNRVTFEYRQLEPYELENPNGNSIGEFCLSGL
In words: Dose Response confirmation of uHTS hits for small molecule antagonists of the CRF-binding protein and CRF-R2 receptor complex. The format is functional. The note with it: read-out: IC50_Mean.

Test [2] has as its target T1, Corticotropin-releasing factor receptor 2/Corticotropin-releasing factor-binding protein. Nature of the test: activators of CRF receptor 2 with binding protein – uHTS hits, confirmation (AID 602473). Format: functional. The settings on record: read-out: EC50_Mean.
Test [3] can be described thus: cells. Format: functional, cell-based.
Test [4] in a line: cells. Format: functional, cell-based. The source holds these as a separate data set.
The nature of test [5]: Luminescence Cell-Based Dose Confirmation HTS to Identify Activators of 5'UTR Stem-Loop Driven Alpha-Synuclein mRNA Translation in H4 Neuroglioblastoma Cells. [Related pubchem assays: 1829 (Project Summary), 1814 (Primary HTS)]. Format: functional.
The subject of test [6] is H4. Nature of the test: Luminescence Cell-Based Dose Response HTS to Identify Activators of 5'UTR Stem-Loop Driven Prion Protein mRNA Translation in H4 Neuroglioblastoma Cells. [Related pubchem assays: 1829 (Project Summary), 1814 (Primary HTS)]. Format: functional. The settings on record: Homo sapiens.
Test [7] in a line: Luminescence Cell-Based Dose Response HTS to Identify Activators of Luciferase Translation or Activity in H4 […] Cells. [Related pubchem assays: 1829 (Project Summary), 1814 (Primary HTS)]. The format is functional.
Test [8] concerns the target T2, Protein RecA (Mycobacterium tuberculosis, UniProt P9WHJ3).
T2 sequence (P9WHJ3 whole entry): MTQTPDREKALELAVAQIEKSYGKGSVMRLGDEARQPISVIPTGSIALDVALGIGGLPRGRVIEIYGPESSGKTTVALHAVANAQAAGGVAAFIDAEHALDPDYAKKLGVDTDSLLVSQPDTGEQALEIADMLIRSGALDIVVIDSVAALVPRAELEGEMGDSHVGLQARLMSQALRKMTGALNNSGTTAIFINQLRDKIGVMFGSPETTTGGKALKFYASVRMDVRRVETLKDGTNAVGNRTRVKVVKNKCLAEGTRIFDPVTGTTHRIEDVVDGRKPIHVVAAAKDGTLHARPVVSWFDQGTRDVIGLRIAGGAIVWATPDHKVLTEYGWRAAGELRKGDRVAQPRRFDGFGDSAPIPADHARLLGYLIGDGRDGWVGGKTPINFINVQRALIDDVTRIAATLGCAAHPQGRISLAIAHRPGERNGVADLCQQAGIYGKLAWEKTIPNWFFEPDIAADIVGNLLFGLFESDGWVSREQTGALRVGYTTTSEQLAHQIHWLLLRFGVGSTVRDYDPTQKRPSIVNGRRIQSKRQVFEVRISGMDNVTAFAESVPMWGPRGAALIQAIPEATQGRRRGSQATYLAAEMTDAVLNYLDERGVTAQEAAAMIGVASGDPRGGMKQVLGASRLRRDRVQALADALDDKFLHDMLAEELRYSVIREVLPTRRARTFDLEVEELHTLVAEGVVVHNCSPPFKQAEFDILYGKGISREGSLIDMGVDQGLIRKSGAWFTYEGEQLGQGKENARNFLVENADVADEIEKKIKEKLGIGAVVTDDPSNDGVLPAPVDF
In words: Fluorescence Cell-Free Homogeneous Dose Retest to Identify Inhibitors of RecA-Intein Splicing Activity. [Related pubchem assays (depositor defined):AID2097, AID2223, AID489010, AID492950]. Format: functional.

The target in test [9] is T3, Replicative DNA helicase DnaB (Mycobacterium tuberculosis, UniProt P9WMR3).
T3 sequence (P9WMR3 whole entry): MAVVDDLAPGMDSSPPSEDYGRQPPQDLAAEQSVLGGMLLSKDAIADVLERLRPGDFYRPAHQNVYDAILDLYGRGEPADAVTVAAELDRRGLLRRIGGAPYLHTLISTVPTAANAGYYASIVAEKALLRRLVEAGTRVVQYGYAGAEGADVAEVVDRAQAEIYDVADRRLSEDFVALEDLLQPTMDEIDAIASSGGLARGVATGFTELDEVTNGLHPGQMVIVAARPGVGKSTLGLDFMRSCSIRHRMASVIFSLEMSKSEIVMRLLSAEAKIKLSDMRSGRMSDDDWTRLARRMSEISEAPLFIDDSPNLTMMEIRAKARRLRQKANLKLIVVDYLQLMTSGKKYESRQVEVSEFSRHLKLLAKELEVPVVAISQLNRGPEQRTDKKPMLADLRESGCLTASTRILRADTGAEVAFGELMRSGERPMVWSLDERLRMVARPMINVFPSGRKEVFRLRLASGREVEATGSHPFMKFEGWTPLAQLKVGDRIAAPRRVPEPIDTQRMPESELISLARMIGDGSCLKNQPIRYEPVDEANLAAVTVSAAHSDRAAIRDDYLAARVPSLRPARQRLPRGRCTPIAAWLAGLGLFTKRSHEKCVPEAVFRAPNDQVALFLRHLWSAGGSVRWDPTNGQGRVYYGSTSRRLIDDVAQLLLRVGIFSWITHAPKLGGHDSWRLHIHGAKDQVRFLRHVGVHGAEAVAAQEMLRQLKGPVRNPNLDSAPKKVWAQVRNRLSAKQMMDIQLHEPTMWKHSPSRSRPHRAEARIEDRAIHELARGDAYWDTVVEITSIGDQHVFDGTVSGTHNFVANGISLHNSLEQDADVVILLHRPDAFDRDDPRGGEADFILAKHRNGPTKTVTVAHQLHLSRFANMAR
In words: DnaB intein splicing inhibitors, dose response, biochemical, cell-free fluorescence (AID 449749). The format is functional.

Test [10] in a line: microbe, parasite or virus in culture. Format: functional. The note with it: Mycobacterium tuberculosis.
Test [11] is described as follows: blockers of HIV-1 envelope-mediated cell-cell fusion – cherry-pick, dose response (AID 652057). Format: functional, cell-based.
Test [12] is described as follows: HIV-1 AD8 envelope cell-cell fusion blockers – cherry-pick, dose response (AID 652062).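 Note: luciferase signal from cell-cell fusion driven by HIV-1 clade B AD8 Env; potency is for inhibitors of fusion seen as a drop in luminescence.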 The format is functional, cell-based.
The test system of test [13] is Streptococcus sp. 'group A'. In words: Streptococcus pyogenes SK(-)GAS viability under kanamycin – luminescence, BacTiterGlo, confirmation, counter-screen for streptokinase expression inhibitor project, dose response (AID 1900). Format: functional, organism-based. (A counterscreen serves to expose hits that act by an unwanted route or on another target.)
The test system of test [14] is Streptococcus. In words: GAS UMAA2166 growth inhibition – luminescence, BacTiterGlo, counter-screen for streptokinase expression inhibitor project, dose response (AID 1915).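 Note: potency for reduction of bacterial viability or growth.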 Format: functional, organism-based.

The source made the active and inactive calls. Cut-off read from the data, not from the text of the source, for most assays here: actives have a measured EC50 and inactives only a lower limit.

On to `O=C(O)C(c1ccccc1)C1(O)CCCC1` (stereo unspecified), for which the IC50 in [1] is > 47.1 µM (inactive). Also, the EC50 in [2] is > 53 µM (inactive).

For the compound `O=C(Cn1c(Cc2ccccc2)nc2ccccc21)NCc1ccc2c(c1)OCO2`, the EC50 in [3] and in test [4] was > 350 µM (not active) each time.

On to `COc1ccc(NC(=O)CSc2nc(O)c3c(n2)CCC3)cc1OC`, for which the EC50 in [3] and in test [4] was > 350 µM (not active) in each case.

For `CN(Cc1cccs1)C(=O)CSc1nc(N)cc(N)n1`, the EC50 in [3] and in test [4] was > 350 µM (not active) throughout.

On to `COc1ccc(N2/C(=N/C(=O)CCC3CCCC3)SC3CS(=O)(=O)CC32)cc1` (stereo unspecified), for which the EC50 in test [3] and in test [4] was > 350 µM (not active) in each case.

With `Cn1c(CO)nc2c3ccccc3ccc21`, the EC50 in [3] and in [4] was > 350 µM (not active) each time.

Regarding `Cc1ccc(NC2=NC(=O)c3cccc([N+](=O)[O-])c32)cc1`, the EC50 in test [5] was 77.8 µM (active); in test [6] it was 26.8 µM (active); in test [7] it was 26.7 µM (active).

Regarding `CCOc1ccc(CCNC(=O)C2CCCN(c3ncnc4c3nc3n4CCCCC3)C2)cc1` (stereo unspecified), in test [1], the IC50 is > 47.1 µM (inactive). Also, in test [2], the EC50 is > 53 µM (inactive).

Consider `CC1(C)Cc2c(sc(/N=C/N3CCCC3)c2C#N)C(C)(C)N1`, for which the IC50 in test [1] was > 47.1 µM (inactive). In addition, the EC50 in test [2] is > 53 µM (inactive).

Regarding `Cc1ccc(-c2nc3nc4ccccc4nc3n2Cc2ccco2)cc1`, the EC50 is 21.9 µM (active) in test [5] and 13.2 µM (active) in test [7].

As for `N#C/C(=C(/O)c1ccc(F)cc1)c1nc2ccccc2s1`, the EC50 in test [3] is > 350 µM (not active); in test [4], 7.41 µM (active).

Regarding `CCOC(=O)c1c(NC(=O)CCl)sc(CN(C)C)c1-c1ccccc1`, the EC50 in test [8] is 7.5 µM (active). Further, in test [9], the AC50 (as a rule, the concentration at which the activity in the assay is half-maximal) is 20.4 µM (active). Also, the CC50 in test [10] is 12.5 µM (active).

Take `CN(C)c1ccc(/C=N/NC(=S)NCc2ccco2)cc1`: the EC50 is 15.3 µM (active) in test [5], > 120 µM (not active) in test [6] and 8.41 µM (active) in [7].

On to `O=C(c1ccc(OC2CCN(CCc3ccccc3)CC2)cc1)N1CCCC(CCCO)C1` (stereo unspecified), for which the EC50 in [3] and in [4] was > 350 µM (not active) each time.

Regarding `CN1C(=O)C2(c3ccccc31)N(C)CC(c1ccccc1)C21SC(=S)N(Cc2ccco2)C1=O` (stereo unspecified), the values for the AC50 in test [11] and in test [12] were 46.4 µM (active) and 36.5 µM (active), respectively.

For the compound `O=C(c1cccc(C(F)(F)F)c1)C1CCCN(C(=O)Cn2cncn2)C1` (stereo unspecified), the EC50 in test [3] and in test [4] was > 350 µM (not active) in each case.

For `CSc1ccccc1N=C(S)NCc1ccc(Cl)cc1`, the EC50 in test [5] is 4.54 µM (active); in test [6], 9.9 µM (active); in test [7], 5.76 µM (active).

In the case of `O=C(NCCCC1CCCC1)C1CCC(=O)N(Cc2cccc(F)c2)C1` (stereo unspecified), the EC50 in test [5], in test [6] and in test [7] was > 120 µM (not active) in each case.

With `Cc1ccc(S(=O)(=O)N(C)CC(=O)NCCCn2ccnc2)cc1`, the EC50 in test [3] and in [4] was > 350 µM (not active) in each case.

As to `CCC(C)NC(=O)CSc1nc2ccccc2c(=O)n1CCCC(=O)NCC1CCCO1` (stereo unspecified), the IC50 in test [1] was > 47.1 µM (inactive). Further, the EC50 in test [2] was > 53 µM (inactive).

On to `Cc1nn(-c2cccc([N+](=O)[O-])c2)c(N)c1-c1ccccc1`, for which the IC50 in test [1] was > 47.1 µM (inactive). In addition, in test [2], the EC50 was > 53 µM (inactive).

As for `CSc1ccccc1OCc1cc(C(=O)NCc2csc(C(C)C)n2)no1`, the IC50 in test [1] was > 47.1 µM (inactive). Besides, the EC50 in [2] is > 53 µM (inactive).

Regarding `O=C(Nc1nc(-c2ccccn2)cs1)c1ccc(S(=O)(=O)N2CCCCC2)cc1`, the EC50 was 0.879 µM (active) in test [13], 13.4 µM (active) in test [3], 2.56 µM (active) in test [14] and > 350 µM (not active) in [4].

`CC(=O)N1CCOc2ccc(S(=O)(=O)N3CCCCC3)cc21`: the EC50 in [5], in test [6] and in test [7] was > 120 µM (not active) in each case.

For the compound `COc1ccc(OC2C(=O)N(Cc3ccc(F)cc3)C2c2cc(OC)c(OC)c(OC)c2)cc1` (stereo unspecified), the IC50 in test [1] is > 47.1 µM (inactive). In addition, the EC50 in test [2] is > 53 µM (inactive).

In the case of `CNC(=O)C1CCN(S(=O)(=O)c2c(C)noc2/C=C/c2ccccc2F)CC1`, the EC50 in test [5] was 21.8 µM (active); in test [6] it was > 120 µM (not active); in test [7], 12.8 µM (active).

The values above are taken from ChEMBL document CHEMBL1201862, “PubChem BioAssay data set” (2004).
